Laboratory results taken from the NIST ThermoML archive (doi:10.1021/je900830s).
Numbers after ± are expanded uncertainties.

Conditions: 101.33 kPa, Liquid, Buoyancy - hydrostatic balance with magnetic suspension - one sinker

CCO [ethanol]
mass density (313.2 K): 768.9 ± 3.5 kg/m3
mass density (338.2 K): 752.7 ± 1.7 kg/m3
mass density (343.2 K): 732.4 ± 1.2 kg/m3
